Data from PubChem BioAssay AID1963843 (Molecular Pharmacology Branch, DTP, NCI, 2024).

Tested on: 616215-338-R-J1-PDC complex spheroid viability
Experiment: Anticancer human tumor 616215-338-R-J1-PDC patient-derived colon adenocarcinoma cell line growth inhibition [POLQ]
Details: for IC50: curve of first compound; for viability, T/C: stronger effect = lower value
Procedure, shortened: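 Growth inhibition in 3D: complex spheroids (tumor PDC, HUVEC, MSC) treated with POLQ inhibitor combinations; where Cmax unknown, highest tested concentration 10 microM, except SN-38 at 1 microM.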

[1] = second compound 0.0316 µM, first compound 0.0316 µM
[2] = second compound 0.0316 µM, first compound 0.1 µM
[3] = second compound 0.0316 µM, first compound 0.316 µM
[4] = second compound 0.0316 µM, first compound 1 µM
[5] = second compound 0.1 µM, first compound 0.0316 µM
[6] = second compound 0.1 µM, first compound 0.1 µM
[7] = second compound 0.1 µM, first compound 0.316 µM
[8] = second compound 0.1 µM, first compound 1 µM
[9] = second compound 0.316 µM, first compound 0.0316 µM
[10] = second compound 0.316 µM, first compound 0.1 µM
[11] = second compound 0.316 µM, first compound 0.316 µM
[12] = second compound 0.316 µM, first compound 1 µM
[13] = second compound 1 µM, first compound 0.0316 µM
[14] = second compound 1 µM, first compound 0.1 µM
[15] = second compound 1 µM, first compound 0.316 µM
[16] = second compound 1 µM, first compound 1 µM
[17] = second compound 3.16 µM, first compound 0.0316 µM
[18] = second compound 3.16 µM, first compound 0.1 µM
[19] = second compound 3.16 µM, first compound 0.316 µM
[20] = second compound 3.16 µM, first compound 1 µM
[21] = second compound 10 µM, first compound 0.0316 µM
[22] = second compound 10 µM, first compound 0.1 µM
[23] = second compound 10 µM, first compound 0.316 µM
[24] = second compound 10 µM, first compound 1 µM
[25] = second compound 0.0316 µM, first compound 3.16 µM
[26] = second compound 0.0316 µM, first compound 10 µM
[27] = second compound 0.1 µM, first compound 3.16 µM
[28] = second compound 0.1 µM, first compound 10 µM
[29] = second compound 0.316 µM, first compound 3.16 µM
[30] = second compound 0.316 µM, first compound 10 µM
[31] = second compound 1 µM, first compound 3.16 µM
[32] = second compound 1 µM, first compound 10 µM
[33] = second compound 3.16 µM, first compound 3.16 µM
[34] = second compound 3.16 µM, first compound 10 µM
[35] = second compound 10 µM, first compound 3.16 µM
[36] = second compound 10 µM, first compound 10 µM
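Also: spheroids exposed to compounds for one week before readout.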
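For viability, T/C in this document: percent viability relative to DMSO vehicle wells taken as 100%.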

Work on `C=CCn1c(=O)c2cnc(Nc3ccc(N4CCN(C)CC4)cc3)nc2n1-c1cccc(C(C)(C)O)n1` + Nc1ccc(C#CCN(C(=O)Cc2ncc(C(F)(F)F)cc2C(F)(F)F)c2ccc(F)cc2)nn1 yielded an IC50 (second compound 0.0316 µM) of 0.43 µM, an IC50 (second compound 0.1 µM) of 0.285 µM and an IC50 (second compound 0.316 µM) of 0.302 µM. It also gave an IC50 (second compound 1 µM) of 0.365 µM, an IC50 (second compound 3.16 µM) of 0.359 µM and an IC50 (second compound 10 µM) of 0.244 µM. For the same molecule, the viability, T/C (second compound 0.0316 µM, first compound 0.00316 µM) was 102%, the viability, T/C (second compound 0.0316 µM, first compound 0.01 µM) was 98.7% and the viability, T/C [1] was 98.4%. For the same molecule, the viability, T/C [2] was 96.9%, the viability, T/C [3] was 55.4% and the viability, T/C [4] was 35.4%. The viability, T/C (second compound 0.1 µM, first compound 0.00316 µM) was 102%, the viability, T/C (second compound 0.1 µM, first compound 0.01 µM) was 89.1% and the viability, T/C [5] was 96.8%. It also gave a viability, T/C [6] of 97.1%, a viability, T/C [7] of 45.3% and a viability, T/C [8] of 29.1%. The viability, T/C (second compound 0.316 µM, first compound 0.00316 µM) was 99.8%, the viability, T/C (second compound 0.316 µM, first compound 0.01 µM) was 111% and the viability, T/C [9] was 107%. It also gave a viability, T/C [10] of 83%, a viability, T/C [11] of 49.9% and a viability, T/C [12] of 28.1%. For the same molecule, the viability, T/C (second compound 1 µM, first compound 0.00316 µM) was 98.9%, the viability, T/C (second compound 1 µM, first compound 0.01 µM) was 103% and the viability, T/C [13] was 100%. The viability, T/C [14] was 96.8%, the viability, T/C [15] was 53.2% and the viability, T/C [16] was 27.6%. For the same molecule, the viability, T/C (second compound 3.16 µM, first compound 0.00316 µM) was 90%, the viability, T/C (second compound 3.16 µM, first compound 0.01 µM) was 97.9% and the viability, T/C [17] was 94.6%. It also gave a viability, T/C [18] of 87.9%, a viability, T/C [19] of 52.9% and a viability, T/C [20] of 27%. The viability, T/C (second compound 10 µM, first compound 0.00316 µM) was 79%, the viability, T/C (second compound 10 µM, first compound 0.01 µM) was 91.4% and the viability, T/C [21] was 91.1%. For the same molecule, the viability, T/C [22] was 79.3%, the viability, T/C [23] was 41.4% and the viability, T/C [24] was 26.5%.
Molecule `CC1COCCN1c1cc(C2(S(C)(=N)=O)CC2)nc(-c2ccnc3[nH]ccc23)n1` (stereo unspecified) + Nc1ccc(C#CCN(C(=O)Cc2ncc(C(F)(F)F)cc2C(F)(F)F)c2ccc(F)cc2)nn1 has an IC50 (second compound 0.0316 µM) of 4.98 µM, an IC50 (second compound 0.1 µM) of 5.39 µM and an IC50 (second compound 0.316 µM) of 6.77 µM. The IC50 (second compound 1 µM) was 5.38 µM, the IC50 (second compound 3.16 µM) was 6.99 µM and the IC50 (second compound 10 µM) was 2.88 µM. For the same molecule, the viability, T/C [1] was 115%, the viability, T/C [2] was 96.5% and the viability, T/C [3] was 93%. The viability, T/C [4] was 93.4%, the viability, T/C [25] was 56.9% and the viability, T/C [26] was 32.6%. For the same molecule, the viability, T/C [5] was 93.9%, the viability, T/C [6] was 104% and the viability, T/C [7] was 94.3%. The viability, T/C [8] was 94.7%, the viability, T/C [27] was 63.1% and the viability, T/C [28] was 34.7%. For the same molecule, the viability, T/C [9] was 101%, the viability, T/C [10] was 97.6% and the viability, T/C [11] was 93.8%. The viability, T/C [12] was 97.3%, the viability, T/C [29] was 62.3% and the viability, T/C [30] was 43.7%. For the same molecule, the viability, T/C [13] was 108%, the viability, T/C [14] was 101% and the viability, T/C [15] was 90.9%. For the same molecule, the viability, T/C [16] was 84.7%, the viability, T/C [31] was 59.9% and the viability, T/C [32] was 36.5%. It also gave a viability, T/C [17] of 87.5%, a viability, T/C [18] of 95.3% and a viability, T/C [19] of 87.4%. The viability, T/C [20] was 83%, the viability, T/C [33] was 68.8% and the viability, T/C [34] was 41.6%. It also gave a viability, T/C [21] of 96.5%, a viability, T/C [22] of 91.5% and a viability, T/C [23] of 78.2%. It also gave a viability, T/C [24] of 92.1%, a viability, T/C [35] of 46.5% and a viability, T/C [36] of 35.5%.
Molecule `CCCS(=O)(=O)Nc1ccc(F)c(C(=O)c2c[nH]c3ncc(-c4ccc(Cl)cc4)cc23)c1F` + Nc1ccc(C#CCN(C(=O)Cc2ncc(C(F)(F)F)cc2C(F)(F)F)c2ccc(F)cc2)nn1 has an IC50 (second compound 0.0316 µM) of 6.35 µM, an IC50 (second compound 0.1 µM) of 6.1 µM and an IC50 (second compound 0.316 µM) of 6.23 µM. It also gave an IC50 (second compound 1 µM) of 6.15 µM, an IC50 (second compound 3.16 µM) of 6.14 µM and an IC50 (second compound 10 µM) of 5.68 µM. For the same molecule, the viability, T/C [1] was 107%, the viability, T/C [2] was 109% and the viability, T/C [3] was 105%. For the same molecule, the viability, T/C [4] was 110%, the viability, T/C [25] was 114% and the viability, T/C [26] was 11.4%. For the same molecule, the viability, T/C [5] was 107%, the viability, T/C [6] was 111% and the viability, T/C [7] was 110%. For the same molecule, the viability, T/C [8] was 109%, the viability, T/C [27] was 101% and the viability, T/C [28] was 11.5%. For the same molecule, the viability, T/C [9] was 101%, the viability, T/C [10] was 104% and the viability, T/C [11] was 106%. For the same molecule, the viability, T/C [12] was 105%, the viability, T/C [29] was 102% and the viability, T/C [30] was 13.8%. For the same molecule, the viability, T/C [13] was 112%, the viability, T/C [14] was 114% and the viability, T/C [15] was 101%. For the same molecule, the viability, T/C [16] was 111%, the viability, T/C [31] was 102% and the viability, T/C [32] was 11.9%. It also gave a viability, T/C [17] of 111%, a viability, T/C [18] of 103% and a viability, T/C [19] of 107%. The viability, T/C [20] was 102%, the viability, T/C [33] was 100% and the viability, T/C [34] was 13%. For the same molecule, the viability, T/C [21] was 109%, the viability, T/C [22] was 86.3% and the viability, T/C [23] was 101%. The viability, T/C [24] was 94.4%, the viability, T/C [35] was 92.3% and the viability, T/C [36] was 9.03%.
